Experimental data: the NIST ThermoML archive (doi:10.1016/j.tca.2010.09.004)
± gives the expanded uncertainty stated by the source.

Assay: xn = mol fraction of the nth substance listed
Conditions: 101 kPa, Liquid; for speed of sound: Sing-around technique in a fixed-path interferometer; for mass density: Vibrating tube method

Molecule `CCCNCCC` [dipropylamine] + CCC(C)=O has a speed of sound (293.15 K, x2 = 0.0539) of 1208 ± 1.3 m/s, a speed of sound (293.15 K, x2 = 0.1021) of 1207.3 ± 1.3 m/s and a speed of sound (293.15 K, x2 = 0.1497) of 1206.7 ± 1.3 m/s. It also gave a speed of sound (293.15 K, x2 = 0.1982) of 1206.2 ± 1.3 m/s, a speed of sound (293.15 K, x2 = 0.2459) of 1205.7 ± 1.3 m/s and a speed of sound (293.15 K, x2 = 0.2983) of 1205.2 ± 1.2 m/s. The speed of sound (293.15 K, x2 = 0.3504) was 1204.9 ± 1.2 m/s, the speed of sound (293.15 K, x2 = 0.4012) was 1204.6 ± 1.2 m/s and the speed of sound (293.15 K, x2 = 0.4495) was 1204.3 ± 1.2 m/s. It also gave a speed of sound (293.15 K, x2 = 0.5068) of 1204.3 ± 1.2 m/s, a speed of sound (293.15 K, x2 = 0.5551) of 1204.4 ± 1.2 m/s and a speed of sound (293.15 K, x2 = 0.6014) of 1204.5 ± 1.1 m/s. For the same molecule, the speed of sound (293.15 K, x2 = 0.6568) was 1204.8 ± 1.1 m/s, the speed of sound (293.15 K, x2 = 0.6968) was 1205.1 ± 1.1 m/s and the speed of sound (293.15 K, x2 = 0.7555) was 1205.9 ± 1.1 m/s. For the same molecule, the speed of sound (293.15 K, x2 = 0.8009) was 1206.6 ± 1.1 m/s, the speed of sound (293.15 K, x2 = 0.8573) was 1207.8 ± 1.1 m/s and the speed of sound (293.15 K, x2 = 0.901) was 1208.9 ± 1.1 m/s. The speed of sound (293.15 K, x2 = 0.9479) was 1210.3 ± 1.1 m/s, the mass density (293.15 K, x2 = 0.0539) was 740.359 ± 0.31 kg/m3 and the mass density (293.15 K, x2 = 0.1021) was 742.443 ± 0.3 kg/m3. The mass density (293.15 K, x2 = 0.1497) was 744.612 ± 0.29 kg/m3, the mass density (293.15 K, x2 = 0.1982) was 746.936 ± 0.29 kg/m3 and the mass density (293.15 K, x2 = 0.2459) was 749.311 ± 0.28 kg/m3. The mass density (293.15 K, x2 = 0.2983) was 752.034 ± 0.27 kg/m3, the mass density (293.15 K, x2 = 0.3504) was 754.874 ± 0.27 kg/m3 and the mass density (293.15 K, x2 = 0.4012) was 757.757 ± 0.26 kg/m3. It also gave a mass density (293.15 K, x2 = 0.4495) of 760.619 ± 0.25 kg/m3, a mass density (293.15 K, x2 = 0.5068) of 764.2 ± 0.25 kg/m3 and a mass density (293.15 K, x2 = 0.5551) of 767.388 ± 0.24 kg/m3. It also gave a mass density (293.15 K, x2 = 0.6014) of 770.563 ± 0.23 kg/m3, a mass density (293.15 K, x2 = 0.6568) of 774.567 ± 0.23 kg/m3 and a mass density (293.15 K, x2 = 0.6968) of 777.603 ± 0.22 kg/m3. It also gave a mass density (293.15 K, x2 = 0.7555) of 782.275 ± 0.21 kg/m3, a mass density (293.15 K, x2 = 0.8009) of 786.111 ± 0.21 kg/m3 and a mass density (293.15 K, x2 = 0.8573) of 791.158 ± 0.2 kg/m3. The mass density (293.15 K, x2 = 0.901) was 795.276 ± 0.2 kg/m3, the mass density (293.15 K, x2 = 0.9479) was 799.908 ± 0.19 kg/m3 and the speed of sound (298.15 K, x2 = 0.0592) was 1186.6 ± 1.3 m/s. It also gave a speed of sound (298.15 K, x2 = 0.1027) of 1185.9 ± 1.3 m/s, a speed of sound (298.15 K, x2 = 0.1509) of 1185.2 ± 1.3 m/s and a speed of sound (298.15 K, x2 = 0.2001) of 1184.7 ± 1.3 m/s. It also gave a speed of sound (298.15 K, x2 = 0.2446) of 1184.2 ± 1.2 m/s, a speed of sound (298.15 K, x2 = 0.2958) of 1183.8 ± 1.2 m/s and a speed of sound (298.15 K, x2 = 0.3545) of 1183.3 ± 1.2 m/s. The speed of sound (298.15 K, x2 = 0.4003) was 1183.2 ± 1.2 m/s, the speed of sound (298.15 K, x2 = 0.4625) was 1182.5 ± 1.2 m/s and the speed of sound (298.15 K, x2 = 0.5006) was 1182.9 ± 1.2 m/s. For the same molecule, the speed of sound (298.15 K, x2 = 0.5539) was 1182.7 ± 1.1 m/s, the speed of sound (298.15 K, x2 = 0.5992) was 1183.2 ± 1.1 m/s and the speed of sound (298.15 K, x2 = 0.6474) was 1183.4 ± 1.1 m/s. For the same molecule, the speed of sound (298.15 K, x2 = 0.6987) was 1183.5 ± 1.1 m/s, the speed of sound (298.15 K, x2 = 0.7531) was 1184.6 ± 1.1 m/s and the speed of sound (298.15 K, x2 = 0.8048) was 1185.4 ± 1.1 m/s. For the same molecule, the speed of sound (298.15 K, x2 = 0.8557) was 1186.6 ± 1.1 m/s, the speed of sound (298.15 K, x2 = 0.9041) was 1188 ± 1.1 m/s and the speed of sound (298.15 K, x2 = 0.9471) was 1189.1 ± 1 m/s. For the same molecule, the mass density (298.15 K, x2 = 0.0592) was 736.042 ± 0.31 kg/m3, the mass density (298.15 K, x2 = 0.1027) was 737.924 ± 0.3 kg/m3 and the mass density (298.15 K, x2 = 0.1509) was 740.108 ± 0.29 kg/m3. The mass density (298.15 K, x2 = 0.2001) was 742.441 ± 0.29 kg/m3, the mass density (298.15 K, x2 = 0.2446) was 744.623 ± 0.28 kg/m3 and the mass density (298.15 K, x2 = 0.2958) was 747.263 ± 0.27 kg/m3. For the same molecule, the mass density (298.15 K, x2 = 0.3545) was 750.41 ± 0.27 kg/m3, the mass density (298.15 K, x2 = 0.4003) was 753 ± 0.26 kg/m3 and the mass density (298.15 K, x2 = 0.4625) was 756.591 ± 0.25 kg/m3. For the same molecule, the mass density (298.15 K, x2 = 0.5006) was 759.04 ± 0.25 kg/m3, the mass density (298.15 K, x2 = 0.5539) was 762.376 ± 0.24 kg/m3 and the mass density (298.15 K, x2 = 0.5992) was 765.587 ± 0.24 kg/m3. It also gave a mass density (298.15 K, x2 = 0.6474) of 769.011 ± 0.23 kg/m3, a mass density (298.15 K, x2 = 0.6987) of 772.61 ± 0.23 kg/m3 and a mass density (298.15 K, x2 = 0.7531) of 777.151 ± 0.22 kg/m3. The mass density (298.15 K, x2 = 0.8048) was 781.469 ± 0.21 kg/m3, the mass density (298.15 K, x2 = 0.8557) was 785.991 ± 0.2 kg/m3 and the mass density (298.15 K, x2 = 0.9041) was 790.463 ± 0.2 kg/m3. The mass density (298.15 K, x2 = 0.9471) was 794.714 ± 0.19 kg/m3, the speed of sound (303.15 K, x2 = 0.0658) was 1165.9 ± 1.3 m/s and the speed of sound (303.15 K, x2 = 0.0988) was 1165.4 ± 1.3 m/s. For the same molecule, the speed of sound (303.15 K, x2 = 0.1106) was 1165.2 ± 1.3 m/s, the speed of sound (303.15 K, x2 = 0.2146) was 1164.1 ± 1.3 m/s and the speed of sound (303.15 K, x2 = 0.2595) was 1163.5 ± 1.2 m/s. It also gave a speed of sound (303.15 K, x2 = 0.3098) of 1163.1 ± 1.2 m/s, a speed of sound (303.15 K, x2 = 0.363) of 1162.8 ± 1.2 m/s and a speed of sound (303.15 K, x2 = 0.4131) of 1162.5 ± 1.2 m/s. The speed of sound (303.15 K, x2 = 0.457) was 1162.4 ± 1.2 m/s, the speed of sound (303.15 K, x2 = 0.5154) was 1162.3 ± 1.1 m/s and the speed of sound (303.15 K, x2 = 0.5554) was 1162.4 ± 1.1 m/s. It also gave a speed of sound (303.15 K, x2 = 0.6081) of 1162.6 ± 1.1 m/s, a speed of sound (303.15 K, x2 = 0.6657) of 1163 ± 1.1 m/s and a speed of sound (303.15 K, x2 = 0.7041) of 1163.5 ± 1.1 m/s. For the same molecule, the speed of sound (303.15 K, x2 = 0.7517) was 1164 ± 1.1 m/s, the speed of sound (303.15 K, x2 = 0.8032) was 1164.8 ± 1.1 m/s and the speed of sound (303.15 K, x2 = 0.8513) was 1166.1 ± 1.1 m/s. The speed of sound (303.15 K, x2 = 0.8958) was 1167 ± 1 m/s, the speed of sound (303.15 K, x2 = 0.9448) was 1168.6 ± 1 m/s and the mass density (303.15 K, x2 = 0.0658) was 731.678 ± 0.31 kg/m3. It also gave a mass density (303.15 K, x2 = 0.0988) of 733.107 ± 0.3 kg/m3, a mass density (303.15 K, x2 = 0.1106) of 733.626 ± 0.3 kg/m3 and a mass density (303.15 K, x2 = 0.2146) of 738.432 ± 0.29 kg/m3. It also gave a mass density (303.15 K, x2 = 0.2595) of 740.626 ± 0.28 kg/m3, a mass density (303.15 K, x2 = 0.3098) of 743.197 ± 0.27 kg/m3 and a mass density (303.15 K, x2 = 0.363) of 746.053 ± 0.27 kg/m3. The mass density (303.15 K, x2 = 0.4131) was 748.859 ± 0.26 kg/m3, the mass density (303.15 K, x2 = 0.457) was 751.472 ± 0.26 kg/m3 and the mass density (303.15 K, x2 = 0.5154) was 755.069 ± 0.25 kg/m3. It also gave a mass density (303.15 K, x2 = 0.5554) of 757.601 ± 0.24 kg/m3, a mass density (303.15 K, x2 = 0.6081) of 761.161 ± 0.24 kg/m3 and a mass density (303.15 K, x2 = 0.6657) of 765.248 ± 0.23 kg/m3. For the same molecule, the mass density (303.15 K, x2 = 0.7041) was 768.129 ± 0.23 kg/m3, the mass density (303.15 K, x2 = 0.7517) was 771.855 ± 0.22 kg/m3 and the mass density (303.15 K, x2 = 0.8032) was 776.094 ± 0.21 kg/m3. The mass density (303.15 K, x2 = 0.8513) was 780.312 ± 0.21 kg/m3, the mass density (303.15 K, x2 = 0.8958) was 784.355 ± 0.2 kg/m3 and the mass density (303.15 K, x2 = 0.9448) was 789.085 ± 0.2 kg/m3.
